Data reported in US11090304B2 (Amgen Inc., priority 2018, dated 2021).

Target: GDP-bound KRAS protein (aa 1-169), containing both G12C and C118A amino acid substitutions (Homo sapiens, UniProt P01116, C118A/G12C)
Assay: Coupled nucleotide exchange assay (SOS-mediated, AlphaScreen)
Type: biochemical
Conditions: 5 min compound pre-incubation

Chain of GDP-bound KRAS protein (aa 1-169), containing both G12C and C118A amino acid substitutions (P01116 1-169 isoform P01116-2 G12C/C118A): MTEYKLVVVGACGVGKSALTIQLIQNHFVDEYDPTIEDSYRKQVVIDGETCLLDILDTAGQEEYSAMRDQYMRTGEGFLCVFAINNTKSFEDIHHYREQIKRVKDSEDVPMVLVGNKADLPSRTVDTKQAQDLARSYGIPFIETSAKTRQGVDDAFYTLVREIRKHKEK

SMILES	Coupled exchange IC50 (5 min)
C=CC(=O)N1CCN(c2nc(=O)n(-c3nccc4c3CCCC4)c3nc(-c4c(O)cccc4F)c(Cl)cc23)[C@@H](C)C1 [Example 55-25, 6-chloro-7-(2-fluoro-6-hydroxyphenyl)-4-((2S)-2-methyl-4-(2-propenoyl)-1-piperazinyl)-1-(5,6,7,8-tetrahydro-1-isoquinolinyl)pyrido[2,3-d]pyrimidin-2(1H)-one]	2.29 | nda μM
C=CC(=O)N1CCN(c2nc(=O)n(-c3ccccc3C(C)C)c3nc(C4=CCCCC4)c(Cl)cc23)[C@@H](C)C1 [Example 54-75, 6-chloro-7-(1-cyclohexen-1-yl)-4-((2S)-2-methyl-4-(2-propenoyl)-1-piperazinyl)-1-(2-(2-propanyl)phenyl)pyrido [2,3-d]pyrimidin-2(1H)-one]	1.08 | nda μM
C=CC(=O)N1CCN(c2nc(=O)n(-c3c(C)cccc3C(C)(C)C)c3nc(-c4c(O)cccc4F)c(F)cc23)[C@@H](C)C1 (single isomer, unassigned) [Example 57-17-2]	3.9 | nda μM
C=CC(=O)N1CCN(c2nc(=O)n(-c3c(C(C)C)ccnc3C)c3nc(-c4ccccc4F)c(F)cc23)[C@@H](C)C1 (single isomer, unassigned) [Example 58-16-1]	11.6 | nda μM
C=CC(=O)N1CCN(c2nc(C#N)c(-c3ccccc3C(C)C)c3nc(-c4ccccc4F)c(Cl)cc23)CC1 [Example 146, 3-Chloro-2-(2-fluorophenyl)-8-(2-(2-propanyl)phenyl)-5-(4-(2-propenoyl)-1-piperazinyl)-1,6-naphthyridine-7-carbonitrile]	38.7 | nda μM
C=CC(=O)N1CCN(c2nc(OC)c(-c3ccccc3C)c3nc(-c4ccccc4F)c(Cl)cc23)[C@@H](C)C1 [Example 134, 1-((3S)-4-(3-Chloro-2-(2-fluorophenyl)-7-methoxy-8-(2-methylphenyl)-1,6-naphthyridin-5-yl)-3-methyl-1-piperazinyl)-2-propen-1-one]	1.95 | nda μM
C=CC(=O)N1CCN(c2nc(=O)n(-c3ccccc3C(C)C)c3nc(-c4ccccc4F)c(F)cc23)[C@@H](C)C1 (single isomer, unassigned) [Example 57-7-1]	8.89 | nda μM
C=CC(=O)N1CCN(c2nc(=O)n(-c3ccccc3C3(C(F)(F)F)CC3)c3nc(-c4c(O)cccc4F)c(F)cc23)[C@@H](C)C1 (single isomer, unassigned) [Example 59-1-1]	11.8 | nda μM
C=CC(=O)N1CCN(c2nc(=O)n(-c3c(C)cccc3C3CC3)c3nc(-c4c(O)cccc4F)c(F)cc23)[C@@H](C)C1 (single isomer, unassigned) [Example 58-13-1]	1.56 | nda μM
C=CC(=O)N1CCN(c2nc(=O)n(-c3c(C)ccnc3C(C)C)c3nc(-c4cc(O)ccc4F)c(F)cc23)[C@@H](C)C1 (single isomer, unassigned) [Example 58-5-1]	5.6 | nda μM
C=CC(=O)N1CCN(c2nc(=O)n(-c3c(CC)n[nH]c3CC)c3nc(-c4ccccc4F)c(Cl)cc23)[C@@H](C)C1 [Example 54-106]	0.51 | nda μM
C=CC(=O)N1CCN(c2nc(=O)n(-c3c(C)ccnc3C(C)C)c3nc(-c4c(O)cccc4F)c(F)cc23)[C@H](C(F)F)C1 (single isomer, unassigned) [Example 75-9-1, (M)-4-((2S or 2R)-2-(difluoromethyl)-4-(2-propenoyl)-1-piperazinyl)-6-fluoro-7-(2-fluoro-6-hydroxyphenyl)-1-(4-methyl-2-(2-propanyl)-3-pyridinyl)pyrido[2,3-d]pyrimidin-2(1H)-one]	1.87 | nda μM

The next lines start with the values.

Coupled exchange IC50 (5 min)	SMILES
5.64 | nda μM	C=CC(=O)N1CCN(c2nc(=O)n(-c3ccccc3C(C)C)c3nc(N4CCCCC4C)c(Cl)cc23)[C@@H](C)C1 (stereo partly drawn) [Example 69-5]
22.2 | nda μM	C=CC(=O)N1CCN(c2nc(=O)n(-c3ccccc3C)c3nc(Cl)c(Cl)cc23)[C@@H](C)C1 [Example 60-12, 6,7-dichloro-1-(2-methylphenyl)-4-((2S)-2-methyl-4-(2-propenoyl)-1-piperazinyl)pyrido[2,3-d]pyrimidin-2(1H)-one]
25.5 | nda μM	C=CC(=O)N1CCN(c2nc(=O)n(CC3CCN(C(=O)OC(C)(C)C)CC3)c3nc(Cl)c(Cl)cc23)[C@@H](C)C1 [Example 60-25, 2-methyl-2-propanyl 4-((6,7-dichloro-4-((2S)-2-methyl-4-(2-propenoyl)-1-piperazinyl)-2-oxopyrido[2,3-d]pyrimidin-1(2H)-yl)methyl)-1-piperidinecarboxylate]
2.22 | nda μM	C=CC(=O)N1C[C@H]2CC[C@@H](C1)N2c1nc(=O)n(-c2c(C)ccnc2C(C)C)c2nc(-c3ccccc3F)c(Cl)cc12 (single isomer, unassigned) [Example 78-13, (M)-6-chloro-7-(2-fluorophenyl)-1-(4-methyl-2-(2-propanyl)-3-pyridinyl)-4-(3-(2-propenoyl)-3,8-diazabicyclo[3.2.1]octan-8-yl)pyrido[2,3-d]pyrimidin-2(1H)-one]
1.3 | nda μM	C=CC(=O)N1CCN(c2nc(=O)n(-c3ccccc3C(C)O)c3nc(-c4c(O)cccc4F)c(Cl)cc23)[C@@H](C)C1 (stereo partly drawn) [Example 60-27, 6-chloro-7-(2-fluoro-6-hydroxyphenyl)-1-(2-((1R)-1-hydroxyethyl)phenyl)-4-((2S)-2-methyl-4-(2-propenoyl)-1-piperazinyl)pyrido[2,3-d]pyrimidin-2(1H)-one | 6-chloro-7-(2-fluoro-6-hydroxyphenyl)-1-(2-((1S)-1-hydroxyethyl)phenyl)-4-((2S)-2-methyl-4-(2-propenoyl)-1-piperazinyl)pyrido[2,3-d]pyrimidin-2(1H)-one]
2.17 | nda μM	C=CC(=O)N1CCN(c2nc(=O)n(-c3c(C)cccc3C(C)C)c3nc(-c4nc(N)cc5ccccc45)c(F)cc23)[C@@H](C)C1 [71-2, 7-(3-amino-1-isoquinolinyl)-6-fluoro-1-(2-methyl-6-(2-propanyl)phenyl)-4-((2S)-2-methyl-4-(2-propenoyl)-1-piperazinyl)pyrido[2,3-d]pyrimidin-2(1H)-one]
1.56 | nda μM	C=CC(=O)N1CCN(c2nc(=O)n(-c3ccccc3C(C)C)c3nc(-c4cccc(OC(F)F)c4)c(Cl)cc23)[C@@H](C)C1 [Example 56-8, 6-chloro-7-(3-(difIuoromethoxy)phenyl)-4-((2S)-2-methyl-4-(2-propenoyl)-1-piperazinyl)-1-(2-(2-propanyl)phenyl)pyrido[2,3-d]pyrimidin-2(1H)-one]

Same assay, conditions: 2 h compound pre-incubation

Coupled exchange IC50 (2 h)	SMILES
nda | 26.9 μM	C=CC(=O)N1CCN(c2nc(=O)n(Cc3ccccn3)c3nc(-c4c(O)cccc4F)c(Cl)cc23)CC1 [Example 60-7]
nda | 7.97 μM	C=CC(=O)N1CCN(c2nc(=O)n(-c3c(CC)cccc3CC)c3nc(Oc4cccc(F)c4)c(Cl)cc23)[C@@H](C)C1 [Example 54-64, 6-chloro-1-(2,6-diethylphenyl)-7-(3-fluorophenoxy)-4-((2S)-2-methyl-4-(2-propenoyl)-1-piperazinyl) pyrido[2,3-d]pyrimidin-2(1H)-one]
